One assay relates to RCC4/VHL. Briefly: XTT IC50 assay, selectivity RCC4 versus RCC4 with VHL-reintroduced. Format: cell-based, human. To be noted: selectivity ratio of XTT IC50 values, RCC4 vs RCC4/VHL. Here is the method:
(§1) RCC4 parental and RCC4 with VHL-reintroduced (RCC4/VHL), SN12C and SN12C-CSCG-VHL shRNA were maintained in DMEM supplemented with 10% FCS.
(§2) IC50 values for compounds were determined by XTT assay. For 2,3-bis[2-methoxy-4-nitro-5-sulfophenyl]-2H-tetrazolium-5-carboxanilide inner salt (XTT) assays, five thousand cells were plated in 96-well plates. The next day, vehicle or drug was added to each well and incubated for four days. Media was aspirated and phenol red-free medium with 0.3 mg/mL XTT and 2.65 ug/mL N-methyl dibenzopyrazine methyl sulfate was added. This was incubated at 37° C. for 1-2 hours and absorbance was read at 450 nm. IC50 values for each compound were calculated using linear interpolation.
(§3) For 2,3-bis[2-methoxy-4-nitro-5-sulfophenyl]-2H-tetrazolium-5-carboxanilide (XTT) assays, five thousand cells were plated in 96-well plates. The next day, vehicle (DMSO) or drug was added by serial dilution. Four days later, media were aspirated, XTT solution (0.3 mg/ml of XTT (Sigma), 2.65 mg/ml N-methyl dibenxopyrazine methyl sulfate (Simga) in phenol red-free media) was added, and the plates were incubated at 37° C. for 1-2 hours. Metabolism of XTT was quantified by measuring the absorbance at 450 nm. IC50s were calculated using linear interpolation. For clonogenic survival assays, three hundred cells were plated per 60 mm tissue culture dish. The cells were allowed to attach overnight and then treated with vehicle or drug for 14 days. Colonies were fixed and stained with crystal violet (0.1% crystal violet in 95% ethanol). All conditions were measured in triplicate and each experiment was done in duplicate or triplicate. To determine necrosis, cells were treated with drug for a given time point. Media and cells were collected, centrifugated, and resuspended in 0.4% trypan blue (Invitrogen). Live and dead cells were counted on a hematocytometer.
Background: Tetrazolium assays rely on reduction of a dye to a coloured formazan, in cell work by metabolically active cells.

For another assay, the system named is RCC4. Briefly: XTT IC50 / viability assay, RCC4 cells. To be noted: Homo sapiens, RCC4, 96 h; XTT assay, four days. Format: cell-based, human. The method, then:
as §1, §2, §3

Where only a bound is given, the exact number is not on record here.

`O=C(Nc1cccnc1)c1ccc(CNS(=O)(=O)c2ccc(CN3CCOCC3)cc2)cc1` [Example 83, 4-[({[4-(4-Morpholinylmethyl)phenyl]sulfonyl}amino)methyl]-N-(3-pyridinyl)benzamide]: the “Ratio (RCC4:RCC/VHL)” value in the assay on RCC4/VHL was “c (“c” reflects a ratio of >100)”. In the assay on RCC4, this molecule came in with an IC50 below 1000 nM.
For `CC(C)(C)c1ccc(S(=O)(=O)NCc2ccc(C(=O)Nc3ccc(N4CCOCC4)nc3)cc2)cc1` [Example 117, 4-({[(4-tert-Butylphenyl)sulfonyl]amino}methyl)-N-[6-(4-morpholinyl)-3-pyridinyl]benzamide], the “Ratio (RCC4:RCC/VHL)” value with RCC4/VHL is listed as “a (“a” reflects a ratio of RCC4/RCC-VHL+ ranging from 1 to 10)”. Besides, in the assay on RCC4, the half-inhibitory concentration (IC50) is above 20000 nM.
Consider `CC(C)(C)c1ccc(CNCc2ccc(C(=O)Nc3cccnc3)cc2)cc1` [Compound B, reference compound], for which the “Ratio (RCC4:RCC/VHL)” value in the assay with RCC4/VHL was “a (“a” reflects a ratio of RCC4/RCC-VHL+ ranging from 1 to 10)”. The molecule further came in with a concentration for half-maximal inhibition (IC50) with RCC4 of 1000 to 20000 nM.
Turning to `Cc1cccc(Nc2nc(-c3ccncc3)cs2)c1` [Compound E, reference compound], the “Ratio (RCC4:RCC/VHL)” value in the assay with RCC4/VHL was “b (“b” reflects from 10 to 100)”. In the assay with RCC4, this molecule had an IC50 of 1000 to 20000 nM.
The corresponding values for `Cn1ccc(-c2cccc(S(=O)(=O)NCc3ccc(C(=O)Nc4cccnc4)cc3)c2)n1` [Example 28, 4-[({[3-(1-Methyl-1H-pyrazol-3-yl)phenyl]sulfonyl}amino)methyl]-N-(3-pyridinyl)benzamide] are “c (“c” reflects a ratio of >100)” and below 1000 nM.
For `O=C(Nc1cccnc1)c1ccc(CNS(=O)(=O)c2ccc(CN3CCCC3)cc2)cc1` [Example 80, 4-[({[4-(1-Pyrrolidinylmethyl)phenyl]sulfonyl}amino)methyl]-N-(3-pyridinyl)-benzamide] the same measures were “c (“c” reflects a ratio of >100)” and below 1000 nM.
Turning to `CN(C(=O)c1ccc(CNS(=O)(=O)c2ccc(C(C)(C)C)cc2)cc1)c1cccnc1` [Example 89, 4-[(4-tert-Butylphenylsulfonamido)methyl]-N-methyl-N-(3-pyridinyl)benzamide], in the assay on RCC4/VHL, the “Ratio (RCC4:RCC/VHL)” value is “a (“a” reflects a ratio of RCC4/RCC-VHL+ ranging from 1 to 10)”. Also, the IC50 in the assay on RCC4 was 1000 to 20000 nM.
Take `O=C(Nc1cccnc1)c1ccc(CNS(=O)(=O)c2ccc(-c3ccccc3)cc2)cc1` [Example 54, 4-((Biphenyl-4-ylsulfonamido)methyl)-N-(pyridin-3-yl)benzamide]: the “Ratio (RCC4:RCC/VHL)” value with RCC4/VHL was “b (“b” reflects from 10 to 100)”. In addition, in the assay on RCC4, the IC50 was 1000 to 20000 nM.
Turning to `Cc1nc(-c2cccc(S(=O)(=O)NCc3ccc(C(=O)Nc4cccnc4)cc3)c2)cs1` [Example 31, 4-[({[3-(2-Methyl-1,3-thiazol-4-yl)phenyl]sulfonyl}amino)methyl]-N-(3-pyridinyl)benzamide], the “Ratio (RCC4:RCC/VHL)” value in the assay with RCC4/VHL was “b (“b” reflects from 10 to 100)”. Further, the IC50 in the assay with RCC4 lay within 1000 to 20000 nM.
Regarding `COc1ccc(-c2ccc(S(=O)(=O)NCc3ccc(C(=O)Nc4cccnc4)cc3)cc2)cc1` [Example 52, 4-({[(4′-Methoxy[1,1′-biphenyl]-4-yl)sulfonyl]amino}methyl)-N-(3-pyridinyl)benzamide], in the assay with RCC4/VHL, the “Ratio (RCC4:RCC/VHL)” value was “b (“b” reflects from 10 to 100)”. The IC50 in the assay on RCC4 lay within 1000 to 20000 nM.
For `CC(C)(C)c1ccc(S(=O)(=O)NCc2ccc(C(=O)Nc3cccnc3F)cc2)cc1` [Example 123, 4-({[(4-tert-Butylphenyl)sulfonyl]amino}methyl)-N-(2-fluoro-3-pyridinyl)benzamide] the same measures were “a (“a” reflects a ratio of RCC4/RCC-VHL+ ranging from 1 to 10)” and 1000 to 20000 nM.
The corresponding values for `O=C(Nc1cccnc1)c1ccc(CNS(=O)(=O)c2cccc(F)c2)cc1` [Example 20, 4-((3-Fluorophenylsulfonamido)methyl)-N-(pyridin-3-yl)benzamide] are “b (“b” reflects from 10 to 100)” and below 1000 nM.
`O=C(Nc1cccnc1)c1ccc(CNS(=O)(=O)c2ccccc2Br)cc1` [Example 13, 4-((2-Bromophenylsulfonamido)methyl)-N-(pyridin-3-yl)benzamide]: the “Ratio (RCC4:RCC/VHL)” value in the assay on RCC4/VHL is given as “a (“a” reflects a ratio of RCC4/RCC-VHL+ ranging from 1 to 10)”. In the assay with RCC4, this molecule returned an IC50 of 1000 to 20000 nM.
For `CCCCOc1ccc(S(=O)(=O)NCc2ccc(C(=O)Nc3cccnc3)cc2)cc1` [Example 34, 4-((4-Butoxyphenylsulfonamido)methyl)-N-(pyridin-3-yl)benzamide], the “Ratio (RCC4:RCC/VHL)” value in the assay on RCC4/VHL is recorded as “b (“b” reflects from 10 to 100)”. In the assay with RCC4, this molecule yielded an IC50 below 1000 nM.
`CN1CCN(Cc2ccc(S(=O)(=O)NCc3ccc(C(=O)Nc4cccnc4)cc3)cc2)CC1` [Example 85, 4-{[({4-[(4-Methyl-1-piperazinyl)methyl]phenyl}sulfonyl)amino]methyl}-N-(3-pyridinyl)benzamide]: the “Ratio (RCC4:RCC/VHL)” value in the assay on RCC4/VHL is given as “c (“c” reflects a ratio of >100)”. For the same molecule, in the assay with RCC4, the concentration for half-maximal inhibition (IC50) was below 1000 nM.
`O=C(Nc1cccnc1)c1ccc(CNS(=O)(=O)c2ccc(CN3CCCCC3)cc2)cc1` [Example 81, 4-[({[4-(1-Piperidinylmethyl)phenyl]sulfonyl}amino)methyl]-N-(3-pyridinyl)benzamide]: the “Ratio (RCC4:RCC/VHL)” value with RCC4/VHL is “b (“b” reflects from 10 to 100)”. This molecule came in with a concentration for half-maximal inhibition (IC50) in the assay on RCC4 below 1000 nM.
The corresponding values for `Cc1ccc(S(=O)(=O)NCc2ccc(C(=O)Nc3cccnc3)cc2)cc1F` [Example 67, 4-((3-Fluoro-4-methylphenylsulfonamido)methyl)-N-(pyridin-3-yl)benzamide] are “c (“c” reflects a ratio of >100)” and below 1000 nM.
The corresponding values for `CN(C)C1Cc2ccc(S(=O)(=O)NCc3ccc(C(=O)Nc4cccnc4)cc3)cc2C1` (centres unmarked) [Example 75, 4-((2-(Dimethylamino)-2,3-dihydro-1H-indene-5-sulfonamido)methyl)-N-(pyridin-3-yl)benzamide] are “c (“c” reflects a ratio of >100)” and below 1000 nM.
On to `O=C(Nc1cccnc1)c1ccc(CNS(=O)(=O)c2ccccc2F)cc1` [Example 11, 4-((2-Fluorophenylsulfonamido)methyl)-N-(pyridin-3-yl)benzamide], for which the “Ratio (RCC4:RCC/VHL)” value in the assay with RCC4/VHL is “a (“a” reflects a ratio of RCC4/RCC-VHL+ ranging from 1 to 10)”. In addition, the half-maximal inhibitory concentration (IC50) with RCC4 lay within 1000 to 20000 nM.
Consider `O=C(Nc1cccnc1)c1ccc(CNS(=O)(=O)c2ccc(-c3ncccn3)cc2)cc1` [Example 57, 4-[({[4-(2-Pyrimidinyl)phenyl]sulfonyl}amino)methyl]-N-(3-pyridinyl)-benzamide], for which the “Ratio (RCC4:RCC/VHL)” value with RCC4/VHL is on record as “b (“b” reflects from 10 to 100)”. Also, the half-inhibitory concentration (IC50) in the assay with RCC4 is below 1000 nM.
The corresponding values for `O=C(Nc1cccnc1)c1ccc(CNS(=O)(=O)c2ccc(C#CCN3CCOCC3)cc2)cc1` [Example 136, 4-{[({4-[3-(4-Morpholinyl)-1-propynyl]phenyl}sulfonyl)amino]methyl}-N-(3-pyridinyl)benzamide] are “b (“b” reflects from 10 to 100)” and below 1000 nM.
As for `COCC#Cc1ccc(S(=O)(=O)NCc2ccc(C(=O)Nc3cccnc3)cc2)cc1` [Example 98, 4-{[({4-[3-(Methyloxy)-1-propynyl]phenyl}sulfonyl)amino]methyl}-N-(3-pyridinyl)benzamide], the “Ratio (RCC4:RCC/VHL)” value in the assay on RCC4/VHL was “a (“a” reflects a ratio of RCC4/RCC-VHL+ ranging from 1 to 10)”. In the assay on RCC4, this molecule registered a half-maximal inhibitory concentration (IC50) of 1000 to 20000 nM.

As usually defined, the IC50 is the midpoint of a concentration-inhibition curve. Higher therefore signals lower potency.
